Reference: ChEMBL document CHEMBL3769377, “A synthesis, in silico, in vitro and in vivo study of thieno[2,3-b]pyridine anticancer analogues” (Medchemcomm, 2015)
Active and inactive are the calls of the source. No cut-off for these calls is given here.

Experiments:
MDA-MB-435 [1] = assay: Cytotoxicity against human MDA-MB-435 cells after 48 hrs by sulforhodamine B assay; format: functional; settings: MDA-MB-435, 48 h; for CC50: read-out: LC50 (the source's name)
786-0 [2] = assay: Cytotoxicity against human 786-0 cells assessed as cell death at 100 uM after 48 hrs by sulforhodamine B assay; format: functional, cell-based
[3] = Growth inhibition of human NCI60 cells assessed as cell growth at 10 uM after 48 hrs by sulforhodamine B assay relative to control; format: functional; settings: NCI60, 48 h, read-out: Activity
MDA-MB-468 [4] = assay: Cytotoxicity against human MDA-MB-468 cells after 48 hrs by sulforhodamine B assay; format: functional; settings: MDA-MB-468, 48 h; for CC50: read-out: LC50 (the source's name)
786-0 [5] = assay: Cytotoxicity against human 786-0 cells after 48 hrs by sulforhodamine B assay; format: functional; settings: 786-0, 48 h; for CC50: read-out: LC50 (the source's name)
MDA-MB-468 [6] = assay: Cytotoxicity against human MDA-MB-468 cells assessed as cell death at 100 uM after 48 hrs by sulforhodamine B assay; format: functional, cell-based
MDA-MB-435 [7] = assay: Cytotoxicity against human MDA-MB-435 cells assessed as cell death at 100 uM after 48 hrs by sulforhodamine B assay; format: functional, cell-based
[8] = Cytotoxicity against human SF539 cells after 48 hrs by sulforhodamine B assay; format: functional; settings: SF-539, 48 h; for CC50: read-out: LC50 (the source's name)
SF-539 [9] = assay: Cytotoxicity against human SF539 cells assessed as assessed as cell death at 100 uM after 48 hrs by sulforhodamine B assay; format: functional, cell-based
SF-539 [10] = assay: Cytotoxicity against human SF539 cells assessed as growth inhibition at 100 uM after 48 hrs by sulforhodamine B assay; format: functional, cell-based
[11] = target: Tyrosyl-DNA phosphodiesterase 1 (Homo sapiens, UniProt Q9NUW8); assay: Inhibition of recombinant human N-terminal His-tagged TDP1 (1824 bp) expressed in Escherichia coli BL21(DE3) cells using 5'-(5,6 FAM-AAC GTC AGG GTC TTC C-BHQ1)-3' as substrate measured every 1 min by RT-PCR method
Tyrosyl-DNA phosphodiesterase 1, sequence (Q9NUW8 whole entry): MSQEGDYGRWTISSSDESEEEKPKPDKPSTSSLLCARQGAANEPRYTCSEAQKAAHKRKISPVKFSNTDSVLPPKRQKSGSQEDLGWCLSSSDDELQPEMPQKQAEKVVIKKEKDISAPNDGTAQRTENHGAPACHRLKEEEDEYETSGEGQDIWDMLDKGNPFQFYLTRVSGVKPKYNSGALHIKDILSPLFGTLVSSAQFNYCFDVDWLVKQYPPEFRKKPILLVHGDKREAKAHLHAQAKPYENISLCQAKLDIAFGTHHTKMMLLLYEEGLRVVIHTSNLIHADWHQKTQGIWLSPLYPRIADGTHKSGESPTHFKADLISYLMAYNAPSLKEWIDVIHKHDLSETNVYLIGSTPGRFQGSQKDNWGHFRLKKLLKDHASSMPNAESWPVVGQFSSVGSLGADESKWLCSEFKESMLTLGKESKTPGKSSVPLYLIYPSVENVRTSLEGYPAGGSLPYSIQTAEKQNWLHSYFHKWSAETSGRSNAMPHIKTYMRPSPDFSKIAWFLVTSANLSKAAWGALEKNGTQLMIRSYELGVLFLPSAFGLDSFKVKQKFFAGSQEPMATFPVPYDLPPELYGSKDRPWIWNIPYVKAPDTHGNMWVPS

SMILES: Nc1c(C(=O)Nc2ccccc2)sc2nc3c(cc12)CCCCC3
- GI50 (MDA-MB-435 [1]): 0.205 µM
- Activity (786-0 [2]): inactive
- growth at 10 µM [3]: 14.7%
- GI50 (MDA-MB-468 [4]): 0.254 µM
- GI50 (786-0 [5]): 0.465 µM
- Activity (MDA-MB-468 [6]): inactive
- Activity (MDA-MB-435 [7]): inactive
- GI50 [8]: 0.307 µM
- CC50 [8]: 94.3 µM

SMILES: Nc1c(C(=O)Nc2ccccc2Cl)sc2nc3c(cc12)CCCC3
- growth at 10 µM [3]: 99.4%

SMILES: CCC1CCc2nc3sc(C(=O)Nc4cccc(F)c4)c(N)c3cc2C1 (racemic)
- Activity (SF-539 [9]): inactive
- GI50 (MDA-MB-435 [1]): 0.11 µM
- Activity (786-0 [2]): inactive
- growth at 10 µM [3]: 60.3%
- GI50 (MDA-MB-468 [4]): 0.471 µM
- GI50 (786-0 [5]): 0.701 µM
- Activity (MDA-MB-468 [6]): inactive
- Activity (MDA-MB-435 [7]): inactive
- growth inhibition (GI) (SF-539 [10]): inactive

SMILES: Nc1c(C(=O)Nc2ccccc2C(F)(F)F)sc2nc3c(cc12)CCC3
- IC50 [11]: > 15 µM

SMILES: Nc1c(C(=O)Nc2ccccc2Cl)sc2nc3c(cc12)CCCCCC3
- GI50 (MDA-MB-435 [1]): 0.275 µM
- CC50 (MDA-MB-435 [1]): 20.9 µM
- growth at 10 µM [3]: 29%
- GI50 (MDA-MB-468 [4]): 2.25 µM
- IC50 [11]: 1 µM
- GI50 (786-0 [5]): 1.75 µM
- CC50 (786-0 [5]): 6.12 µM
- Activity (MDA-MB-468 [6]): inactive
- GI50 [8]: 2.65 µM
- CC50 [8]: 46.6 µM

SMILES: Nc1c(C(=O)Nc2cccc(C(F)(F)F)c2)sc2nc3c(cc12)CCCC3
- growth at 10 µM [3]: 88.1%

SMILES: Nc1c(C(=O)Nc2cccc(C(F)(F)F)c2)sc2nc3c(cc12)C(=O)CC3
- IC50 [11]: 1.7 µM

SMILES: Cc1cccc(NC(=O)c2sc3nc4c(cc3c2N)CCC4)c1C
- GI50 (MDA-MB-435 [1]): 0.052 µM
- CC50 (MDA-MB-435 [1]): 22.7 µM
- growth at 10 µM [3]: 23.6%
- GI50 (MDA-MB-468 [4]): 0.197 µM
- CC50 (MDA-MB-468 [4]): 71.2 µM
- GI50 (786-0 [5]): 0.367 µM
- CC50 (786-0 [5]): 14.3 µM
- GI50 [8]: 0.241 µM
- CC50 [8]: 72.4 µM

SMILES: Nc1c(C(=O)Nc2ccccc2C(F)(F)F)sc2nc3c(cc12)CCCCCC3
- growth at 10 µM [3]: 80.2%

SMILES: Nc1c(C(=O)Nc2ccccc2)sc2nc3c(cc12)CCC3
- growth at 10 µM [3]: 79.5%

SMILES: Nc1c(C(=O)Nc2ccccc2C(F)(F)F)sc2nc3c(cc12)CCCC3
- growth at 10 µM [3]: 90.6%

SMILES: CCC1CCc2nc3sc(C(=O)Nc4cccc(C)c4)c(N)c3cc2C1 (racemic)
- growth at 10 µM [3]: 69.7%

SMILES: Nc1c(C(=O)Nc2cccc(C(F)(F)F)c2)sc2nc3c(cc12)CCCCC3
- GI50 (MDA-MB-435 [1]): 2.53 µM
- growth at 10 µM [3]: 10%
- GI50 (MDA-MB-468 [4]): 0.394 µM
- CC50 (MDA-MB-468 [4]): 31 µM
- GI50 (786-0 [5]): 1.58 µM
- CC50 (786-0 [5]): 6.24 µM
- Activity (MDA-MB-435 [7]): inactive
- GI50 [8]: 1.94 µM
- CC50 [8]: 11.3 µM

SMILES: Nc1c(C(=O)Nc2cccc(C(F)(F)F)c2)sc2nc3c(cc12)CCCCCC3
- GI50 (MDA-MB-435 [1]): 2.1 µM
- CC50 (MDA-MB-435 [1]): 59.2 µM
- growth at 10 µM [3]: 7%
- GI50 (MDA-MB-468 [4]): 0.798 µM
- CC50 (MDA-MB-468 [4]): 15.4 µM
- IC50 [11]: 0.5 µM
- GI50 (786-0 [5]): 1.6 µM
- CC50 (786-0 [5]): 6.07 µM
- GI50 [8]: 1.71 µM
- CC50 [8]: 6.65 µM

SMILES: Nc1c(C(=O)Nc2ccccc2F)sc2nc3c(cc12)CCCC3
- growth at 10 µM [3]: 34.5%

SMILES: Nc1c(C(=O)Nc2c(Cl)cccc2Cl)sc2nc3c(cc12)CCCCC3
- growth at 10 µM [3]: 52.1%

SMILES: Cc1cccc(NC(=O)c2sc3nc4c(cc3c2N)CCCC4)c1
- Activity (SF-539 [9]): inactive
- GI50 (MDA-MB-435 [1]): 0.305 µM
- Activity (786-0 [2]): inactive
- growth at 10 µM [3]: 39.9%
- GI50 (MDA-MB-468 [4]): 1.75 µM
- GI50 (786-0 [5]): 4.13 µM
- Activity (MDA-MB-468 [6]): inactive
- Activity (MDA-MB-435 [7]): inactive
- GI50 [8]: 4.74 µM

SMILES: Nc1c(C(=O)Nc2ccccc2)sc2nc3c(cc12)CCCCCC3
- GI50 (MDA-MB-435 [1]): 0.052 µM
- CC50 (MDA-MB-435 [1]): 0.897 µM
- growth at 10 µM [3]: 12.5%
- GI50 (MDA-MB-468 [4]): 0.291 µM
- GI50 (786-0 [5]): 0.354 µM
- CC50 (786-0 [5]): 10.2 µM
- Activity (MDA-MB-468 [6]): inactive
- GI50 [8]: 0.217 µM
- CC50 [8]: 3.2 µM

SMILES: CCC1CCc2nc3sc(C(=O)Nc4ccccc4F)c(N)c3cc2C1 (racemic)
- Activity (SF-539 [9]): inactive
- GI50 (MDA-MB-435 [1]): 0.133 µM
- Activity (786-0 [2]): inactive
- growth at 10 µM [3]: 61.1%
- GI50 (MDA-MB-468 [4]): 0.347 µM
- GI50 (786-0 [5]): 41.7 µM
- Activity (MDA-MB-468 [6]): inactive
- Activity (MDA-MB-435 [7]): inactive
- GI50 [8]: 10 µM

SMILES: CCC1CCc2nc3sc(C(=O)Nc4ccccc4C)c(N)c3cc2C1 (racemic)
- Activity (SF-539 [9]): inactive
- GI50 (MDA-MB-435 [1]): 0.104 µM
- Activity (786-0 [2]): inactive
- growth at 10 µM [3]: 36.5%
- GI50 (MDA-MB-468 [4]): 0.244 µM
- GI50 (786-0 [5]): 0.371 µM
- Activity (MDA-MB-468 [6]): inactive
- GI50 [8]: 0.398 µM

SMILES: Nc1c(C(=O)Nc2ccccc2)sc2nc3c(cc12)CCCC3
- Activity (SF-539 [9]): inactive
- GI50 (MDA-MB-435 [1]): 0.172 µM
- Activity (786-0 [2]): inactive
- growth at 10 µM [3]: 30.3%
- GI50 (MDA-MB-468 [4]): 0.303 µM
- GI50 (786-0 [5]): 0.656 µM
- Activity (MDA-MB-468 [6]): inactive
- Activity (MDA-MB-435 [7]): inactive
- GI50 [8]: 0.416 µM

SMILES: Nc1c(C(=O)Nc2ccccc2F)sc2nc3c(cc12)CCC3
- growth at 10 µM [3]: 102%

SMILES: COc1cccc(NC(=O)c2sc3nc4c(cc3c2N)CCCC4)c1
- Activity (SF-539 [9]): inactive
- GI50 (MDA-MB-435 [1]): 0.15 µM
- CC50 (MDA-MB-435 [1]): 13.5 µM
- Activity (786-0 [2]): inactive
- growth at 10 µM [3]: 28.2%
- GI50 (MDA-MB-468 [4]): 0.239 µM
- GI50 (786-0 [5]): 0.42 µM
- Activity (MDA-MB-468 [6]): inactive
- GI50 [8]: 0.368 µM
